Experimental data published in US7071218B2, “N-substituted heterocycles for the treatment of hypercholesteremia, dyslipidemia and other metabolic disorders; cancer, and other diseases” (Incyte San Diego Incorporated, priority 2001, dated 2006).

Experiments:
PPARγ = target: T1, PPARγ (Homo sapiens, UniProt P37231); assay: In vitro transactivation assay in CV-1 cells, antagonism of BRL49653-induced Gal-PPARγ activation; assay type: cell-based; conditions: with 1 μM agonist BRL49653, dose-dependent
T1 construct: expressed in transfected cells; host or cells: CV-1 (green monkey kidney) cells, transient calcium phosphate transfection
T1 sequence (P37231 238-503 limits assumed): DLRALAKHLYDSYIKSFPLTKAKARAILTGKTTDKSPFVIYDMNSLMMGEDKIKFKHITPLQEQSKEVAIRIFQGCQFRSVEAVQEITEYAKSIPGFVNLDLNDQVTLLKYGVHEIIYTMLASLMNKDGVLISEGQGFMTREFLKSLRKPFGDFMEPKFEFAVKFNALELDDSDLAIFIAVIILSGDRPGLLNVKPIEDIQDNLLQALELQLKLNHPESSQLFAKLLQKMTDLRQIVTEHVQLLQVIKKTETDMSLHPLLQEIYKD
Description: In vitro screens such as the transactivation assay can be used to measure the ability of a compound to inhibit a nuclear receptor regulating lipid or carbohydrate uptake, synthesis or metabolism. In the assay described herein compounds can be identified that can inhibit activation of the following nuclear receptors: LXR, PPARα, PPARγ and FXR. This activity can be useful to treat lipid disorders such as hypercholesteremia and obesity.
Cell line: Kidney Green Monkey CV-1 cells.
Growing culturing medium: Dulbecco's modified Eagle's medium (DMEM) supplememnted with 10% fetal calf serum (FCS).
Procedure: CV-1 cells were plated in 48 well-plate culture plates, at a density of 10,000 cells/well, 24 h prior to transfection. One to three hours before transfection, cells were fed with fresh medium. A modified calcium phosphate precipitation procedure was used for transient transfection (Pfahl, M. et al., 1990, Methods in Enzymology 189: 256).
Typically, 40 ng reporter plasmid and 20 ng of each receptor expression vector were mixed, together with 10 ng of β-galactosidase control plasmid (pCH110, Pharmacia, Piscataway, N.J.) and Bluescript plasmid to obtain a total of 400 ng DNA per well. To this mixture 1 μl of 2.5M CaCl2 and 10 μl of BBS buffer, pH 6.95, were added afterward. […]

3T3-L1 cells = assay: 3T3-L1 adipocyte differentiation (lipid content), alone or with rosiglitazone (BRL49653); assay type: cell-based, mouse; conditions: 7 days of treatment
Description: The mouse preadipocyte cell line 3T3-L1 has been extensively used to study adipocyte differentiation. Upon stimulation with differentiating agents, preadipocytes typically undergo one cell cycle expansion and then they are growth arrested and dramatically change their shape to become more rounded cells, loaded with lipids, in a fashion closely reflecting adipogenesis in vivo. In this well-known process of differentiation, peroxisome proliferator activated receptor gamma (PPARγ) and retinoid X receptor (RXR) play a key role. PPARγ binds as an obligatory heterodimer with RXR to specific responsive sequences in the promoter region of target genes. In the particular case of PPARγ/RXR heterodimers, both receptors can be activated via their specific ligands. As a consequence of such activation, adipocyte-specific genes are turned on (C/EBP, aP2, LPL, adipsin, etc) and adipocyte differentiation results. Because lipid accumulation is the endpoint of adipocyte differentiation, the quantification of lipids which have accumulated in cells upon treatment with the compound(s) of interest, will indicate the ability of that compound to trigger adipocyte differentiation. More importantly, the potency of that compound can be estimated as well based on the total amount of lipids accumulated. The amount of lipid measured at the end of the assay for each tested compound is here compared to that of Compound 73 at 0.1 μM, which is considered 100% (see FIG. 11A).
In the particular case of measuring the potential antagonistic activity of some compounds, the putative antagonist is combined together with an agonist (such as the PPARγ agonist BRL49653). Thus, the amount of lipids accumulated in response to BRL49653 (considered as 100% in this case), is decreased by the compound with antagonistic activity (see FIG. 11B).
Materials and Methods: Mouse embryo fibroblast 3T3-L1 cell line, from American Type Culture Collection (ATCC), was used as a model of adipocyte differentiation.
Growing medium (GM): DME Dulbecco's modified Eagle's medium containing 4500 mg/L glucose; 4 mM L-glutamine; 10 U/ml Pen-G; 10 mcg/ml and 10% Calf Serum (CS).
Differentiation medium (DM): DME Dulbecco's modified Eagle's medium containing 4500 mg/L glucose; 4 mM L-glutamine; 10 U/ml Pen-G; 10 mcg/ml and 10% Fetal Calf Serum (FCS). Cells are always kept at 10% CO2.
Cells were seeded at 3,000 cells/well in 96 well-tissue culture plates in growing medium.
Two days after reaching confluence, cells were treated with the different compounds of interest in DM (Day 0). Drugs were replaced every 2–3 days in DM. Differentiation was assessed after 7 days of treatment, by measuring the lipid content in the cells, using the Triglyceride (INFINITY) reagent (Quantitative assay). • Controls: All cells, including control cells (vehicle), are treated with the same volume of dimethyl sulfoxide (DMSO) never exceeding 0.1% final solvent concentration. As a positive control for differentiation, cells were treated with 10 μg insulin per ml and 2.5 μM dexamethasone (Ins/Dex).

`CN(C)c1cc2c(cc1-c1ccc3cc(/C=C4\SC(=S)N(CC(=O)O)C4=O)ccc3c1)C(C)(C)CCC2(C)C` [Compound 7, {5-[6-(3-Dimethylamino-5,5,8,8-tetramethyl-5,6,7,8-tetrahydro-naphthalen-2-yl)-naphthalen-2-ylmethylene]-4-oxo-2-thioxo-thiazolidin-3-yl}-acetic acid] was tested, and the inhibition at 10 µM (PPARγ) was 80 to 90%, the “lipid accumulation / differentiation of 3T3-L1 cells by the compound alone” value (3T3-L1 cells; 1e-10M to 1e-5M) was “lacked the ability to differentiate 3T3-L1 cells by themselves” and the “inhibition of adipocyte differentiation / lipid accumulation induced by rosiglitazone (BRL49653)” value (3T3-L1 cells; in combination with rosiglitazone) was “strongly inhibited”.
